Measured values as given in patent publication US10710978B2, “STK4 inhibitors for treatment of hematologic malignancies” (Dana-Farber Cancer Institute, Inc., priority 2015, dated 2020).
Several values for one entry are separate records, joined by “and”; a condition that tells them apart may be missing. Equal values may be shown once. Read-outs that look alike come from different tables or passages of the source.

Columns and labels:
CK1g1 = CK1g1 (Homo sapiens (Human), UniProt Q9HCP0); experiment: KiNativ assay; assay type: binding; settings: H929 live cell
Sequence of CK1g1 (Q9HCP0 whole entry): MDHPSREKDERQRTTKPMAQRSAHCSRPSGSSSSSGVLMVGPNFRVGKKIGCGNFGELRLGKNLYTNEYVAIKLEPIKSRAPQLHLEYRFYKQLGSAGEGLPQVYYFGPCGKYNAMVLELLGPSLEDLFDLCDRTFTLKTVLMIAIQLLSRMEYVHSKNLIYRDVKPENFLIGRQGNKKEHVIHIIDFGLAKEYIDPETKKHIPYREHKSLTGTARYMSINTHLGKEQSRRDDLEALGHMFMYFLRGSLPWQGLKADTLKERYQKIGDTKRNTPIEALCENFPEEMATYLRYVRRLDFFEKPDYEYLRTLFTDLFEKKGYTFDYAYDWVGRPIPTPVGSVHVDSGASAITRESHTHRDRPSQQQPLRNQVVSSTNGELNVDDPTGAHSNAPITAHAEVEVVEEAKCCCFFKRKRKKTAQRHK
Procedure, shortened: (§1)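 IC50 values came from MS analysis in a KiNativ format, following compound exposure of live H929 cells at 10 μM, tested twice.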

ARAF = ARAF (Homo sapiens (Human), UniProt P10398); experiment: KiNativ assay; assay type: binding; settings: H929 live cell
Procedure, shortened: (§2)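 KiNativ profiling in live H929 cells; single concentration 10 μM, n=2; IC50 from MS measurement.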

KHS2 = KHS2 (Homo sapiens (Human), UniProt Q8IVH8); experiment: KiNativ assay; assay type: binding; settings: H929 live cell
Procedure, shortened: as §1

CK1d, CK1e = experiment: KiNativ assay; assay type: binding; settings: H929 live cell
Procedure, shortened: as §1

DNAPK = DNAPK (Homo sapiens (Human), UniProt P78527); experiment: KiNativ assay; assay type: binding; settings: H929 live cell
Method: Biochemical IC50s of the compounds of the present disclosure against various kinases were measured in a KiNativ assay. Compounds were screened in duplicate at 10 μM in H929 live cell. IC50 was measured via Mass spectroscopy (MS).

QSK = QSK (Homo sapiens (Human), UniProt Q9Y2K2); experiment: KiNativ assay; assay type: binding; settings: H929 live cell
Procedure, shortened: as §2

p-MOB1 = experiment: Western blotting; assay type: cell-based; settings: MM.1S cells, 1 μM and 10 μM, 6 hours
From the text: MM.1S, KMS20 and H929 cells are counted, diluted and plated. Cells are then […] with DMSO or different concentration of a compound of the present application for 6 hrs, 24 hrs or 48 hrs. MM cells are then collected and centrifuged at RT and the pellets are re-suspended in lysis buffer. Cell lysates are subjected to sodium dodecyl sulfate-polyacrylamide gel electrophoresis SDS-PAGE, transferred to nitrocellulose membranes, and immunoblotted with different antibodies.
MM.1S, KMS20 and H929 cells were counted, diluted and plated in six-well plates to a final concentration of 500,000 cells/well. Cells were then […] with DMSO or different concentration of a compound of the present application for 6 hrs, 24 hrs or 48 hrs. MM cells were then collected and centrifuged for 5 min, 1300 rpm at RT. The pellets were re-suspended in lysis buffer Laemli 1× (Laemli 5×: SDS 10%, DTT 500 mM, Tris-HCl pH6.8 0.4M, BromoFenol Blue, Glycerol 50%). Cell lysates were subjected to sodium dodecyl sulfate-polyacrylamide gel electrophoresis SDS-PAGE, transferred to nitrocellulose membranes, and immunoblotted with different antibodies: YAP1 (#4912), p-YAP1 (S127) (#13008), LATS1 (#9153), p-LATS1 (Thr1079) (#8654), MOB1 (#3863), p-MOB1 (Thr12) (#8843), p-MST1/p-MST2 (Thr183/Thr180) (#3681), p21 (#2947), PARP (#9532), ERK, STAT, and GAPDH (#5174) from Cell Signaling, Beverly, Mass., United States; STK4 (ab57836) (from Abcam, Cambridge, Mass., United States); PUMA (sc-28226), BAX (sc-20067), from Santa Cruz, Dallas, Tex., United States; β-actin from Sigma-Aldrich (St. Louis, Mo., United States). All antibodies were diluted 1:500, except for β-actin antibody (1:50,000 dilution). In FIG. 8, H929 cells were treated with Compound I-9 or DMSO at 1 μM concentration for 24 hours. Lysates were then obtained and immunoblot was performed using antibodies against PARP, YAP1, PUMA, BAX. p21, and GAPDH.
In FIGS. 26A-26J, MM.1S cells were treated with Compound I-6, Compound I-31, Compound I-30, Compound I-22, Compound I-27, Compound I-1, Compound I-23, Compound I-13, Compound I-28, Compound I-9, or DMSO at 1 μM and 10 μM concentrations for 6 hours. Lysates were then obtained and immunoblot was performed using antibodies against MOB1 and p-MOB1. As shown from FIGS. 26A-26J, Compound I-22, Compound I-27, Compound I-1, Compound I-23, Compound I-13, Compound I-28, and Compound I-9 reduced PMOB1 levels at different concentrations.

MER, TYRO3 = experiment: KiNativ assay; assay type: binding; settings: H929 live cell; for % inhibition: 10 μM, range class
Procedure, shortened: as §1

PCTAIRE2, PCTAIRE3 = experiment: KiNativ assay; assay type: binding; settings: H929 live cell; for % inhibition: 10 μM, range class
Procedure, shortened: as §2

CLK3 = CLK3 (Homo sapiens (Human), UniProt P49761); experiment: KiNativ assay; assay type: binding; settings: H929 live cell
Sequence of CLK3 (P49761 whole entry): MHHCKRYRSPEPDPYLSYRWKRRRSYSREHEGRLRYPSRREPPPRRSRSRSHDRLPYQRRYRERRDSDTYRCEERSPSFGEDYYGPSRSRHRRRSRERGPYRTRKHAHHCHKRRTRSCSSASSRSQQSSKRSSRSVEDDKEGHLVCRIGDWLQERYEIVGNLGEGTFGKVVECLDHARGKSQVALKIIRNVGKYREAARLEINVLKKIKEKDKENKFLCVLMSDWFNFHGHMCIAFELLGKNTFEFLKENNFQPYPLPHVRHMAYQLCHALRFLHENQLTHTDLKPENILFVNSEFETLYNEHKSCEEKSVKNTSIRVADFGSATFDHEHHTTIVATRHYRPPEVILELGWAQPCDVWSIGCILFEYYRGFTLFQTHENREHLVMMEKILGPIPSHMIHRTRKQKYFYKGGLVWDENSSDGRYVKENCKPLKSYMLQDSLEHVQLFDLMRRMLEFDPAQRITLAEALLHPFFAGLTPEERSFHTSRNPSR
Procedure, shortened: as §1

PCTAIRE1 = PCTAIRE1 (Homo sapiens (Human), UniProt Q00536); experiment: KiNativ assay; assay type: binding; settings: H929 live cell
Sequence of PCTAIRE1 (Q00536 whole entry): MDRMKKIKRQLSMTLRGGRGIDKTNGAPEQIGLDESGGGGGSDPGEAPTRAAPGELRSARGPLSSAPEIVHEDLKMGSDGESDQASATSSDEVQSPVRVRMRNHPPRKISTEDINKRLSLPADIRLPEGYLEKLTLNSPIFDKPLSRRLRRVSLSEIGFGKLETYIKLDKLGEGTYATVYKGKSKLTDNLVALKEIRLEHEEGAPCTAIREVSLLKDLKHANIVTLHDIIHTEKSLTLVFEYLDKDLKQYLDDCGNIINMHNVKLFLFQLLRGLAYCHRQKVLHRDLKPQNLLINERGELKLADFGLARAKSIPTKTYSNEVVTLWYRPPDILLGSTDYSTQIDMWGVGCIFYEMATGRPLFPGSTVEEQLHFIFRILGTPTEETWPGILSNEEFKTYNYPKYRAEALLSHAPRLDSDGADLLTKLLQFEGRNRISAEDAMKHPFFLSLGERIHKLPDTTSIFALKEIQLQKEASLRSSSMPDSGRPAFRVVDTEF
Procedure, shortened: as §2

PCTAIRE1, PCTAIRE3 = experiment: KiNativ assay; assay type: binding; settings: H929 live cell; for % inhibition: 10 μM, range class
Procedure, shortened: as §2

PYK2 = PYK2 (Homo sapiens (Human), UniProt Q14289); experiment: KiNativ assay; assay type: binding; settings: H929 live cell
Sequence of PYK2 (Q14289 whole entry): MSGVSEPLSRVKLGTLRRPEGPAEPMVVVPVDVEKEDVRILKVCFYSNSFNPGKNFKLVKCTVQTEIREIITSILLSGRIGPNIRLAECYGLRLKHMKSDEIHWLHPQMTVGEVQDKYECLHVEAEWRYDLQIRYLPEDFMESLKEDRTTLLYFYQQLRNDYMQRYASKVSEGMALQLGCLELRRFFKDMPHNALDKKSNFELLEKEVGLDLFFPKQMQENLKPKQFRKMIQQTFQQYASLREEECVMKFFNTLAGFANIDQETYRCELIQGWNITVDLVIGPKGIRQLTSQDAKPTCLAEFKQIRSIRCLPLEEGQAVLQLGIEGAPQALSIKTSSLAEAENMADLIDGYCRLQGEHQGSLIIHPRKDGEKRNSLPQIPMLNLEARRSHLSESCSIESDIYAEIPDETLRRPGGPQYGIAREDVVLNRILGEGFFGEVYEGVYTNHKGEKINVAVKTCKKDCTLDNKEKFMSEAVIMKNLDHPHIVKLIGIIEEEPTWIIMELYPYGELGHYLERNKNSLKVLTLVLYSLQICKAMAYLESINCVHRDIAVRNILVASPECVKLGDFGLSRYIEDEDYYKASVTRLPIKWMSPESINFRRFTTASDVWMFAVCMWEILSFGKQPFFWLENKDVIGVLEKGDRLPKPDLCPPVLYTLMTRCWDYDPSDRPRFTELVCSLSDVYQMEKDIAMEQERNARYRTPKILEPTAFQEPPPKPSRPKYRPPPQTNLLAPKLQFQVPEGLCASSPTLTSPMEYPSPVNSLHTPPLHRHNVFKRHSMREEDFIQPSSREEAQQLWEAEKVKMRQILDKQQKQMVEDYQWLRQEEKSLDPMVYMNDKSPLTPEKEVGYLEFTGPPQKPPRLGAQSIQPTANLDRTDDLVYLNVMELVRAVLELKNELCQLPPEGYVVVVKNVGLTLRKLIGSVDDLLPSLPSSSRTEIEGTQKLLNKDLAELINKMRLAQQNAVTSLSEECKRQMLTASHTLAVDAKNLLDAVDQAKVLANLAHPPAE
Procedure, shortened: as §2

GAK = GAK (Homo sapiens (Human), UniProt O14976); experiment: KiNativ assay; assay type: binding; settings: H929 live cell
Procedure, shortened: as §1

MAP3K6 = MAP3K6 (Homo sapiens (Human), UniProt O95382); experiment: KiNativ assay; assay type: binding; settings: H929 live cell
Sequence of MAP3K6 (O95382 whole entry): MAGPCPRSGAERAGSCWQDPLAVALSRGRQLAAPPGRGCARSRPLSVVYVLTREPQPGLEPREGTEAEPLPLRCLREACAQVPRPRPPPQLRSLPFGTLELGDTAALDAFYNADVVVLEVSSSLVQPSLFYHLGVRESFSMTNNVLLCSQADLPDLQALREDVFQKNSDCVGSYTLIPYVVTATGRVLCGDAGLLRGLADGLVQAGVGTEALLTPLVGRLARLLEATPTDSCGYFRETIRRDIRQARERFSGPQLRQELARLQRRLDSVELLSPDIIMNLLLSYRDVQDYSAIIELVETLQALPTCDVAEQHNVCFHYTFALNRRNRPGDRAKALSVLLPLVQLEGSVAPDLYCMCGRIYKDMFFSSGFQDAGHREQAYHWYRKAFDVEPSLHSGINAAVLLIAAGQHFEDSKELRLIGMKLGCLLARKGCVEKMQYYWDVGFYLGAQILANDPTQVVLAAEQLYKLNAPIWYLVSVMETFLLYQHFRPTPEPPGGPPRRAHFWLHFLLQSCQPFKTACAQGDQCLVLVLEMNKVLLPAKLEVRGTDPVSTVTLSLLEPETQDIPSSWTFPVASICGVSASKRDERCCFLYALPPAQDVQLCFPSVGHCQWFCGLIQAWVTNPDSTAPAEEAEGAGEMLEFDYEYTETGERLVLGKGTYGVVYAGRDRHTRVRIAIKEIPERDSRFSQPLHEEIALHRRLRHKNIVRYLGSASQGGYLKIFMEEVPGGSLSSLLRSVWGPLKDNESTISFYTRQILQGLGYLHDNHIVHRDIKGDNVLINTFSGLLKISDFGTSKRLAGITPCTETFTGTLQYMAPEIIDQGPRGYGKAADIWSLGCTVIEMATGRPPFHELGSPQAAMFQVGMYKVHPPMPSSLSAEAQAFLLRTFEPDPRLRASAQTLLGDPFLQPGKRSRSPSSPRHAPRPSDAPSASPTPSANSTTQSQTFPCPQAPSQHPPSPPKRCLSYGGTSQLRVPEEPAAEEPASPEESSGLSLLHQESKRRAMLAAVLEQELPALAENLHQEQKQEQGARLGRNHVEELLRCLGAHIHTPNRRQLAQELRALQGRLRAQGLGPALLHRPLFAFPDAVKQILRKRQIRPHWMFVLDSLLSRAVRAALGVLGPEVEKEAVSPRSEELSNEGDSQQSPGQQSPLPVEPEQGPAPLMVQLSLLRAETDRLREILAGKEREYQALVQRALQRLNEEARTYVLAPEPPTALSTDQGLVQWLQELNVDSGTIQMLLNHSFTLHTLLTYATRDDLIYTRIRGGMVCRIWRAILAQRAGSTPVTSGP
Procedure, shortened: as §1

ZC3/MINK = ZC3/MINK (Homo sapiens (Human), UniProt Q8N4C8); experiment: KiNativ assay; assay type: binding; settings: H929 live cell
Procedure, shortened: as §2

PAK2 = PAK2 (Homo sapiens (Human), UniProt Q13177); experiment: KiNativ assay; assay type: binding; settings: H929 live cell
Sequence of PAK2 (Q13177 whole entry): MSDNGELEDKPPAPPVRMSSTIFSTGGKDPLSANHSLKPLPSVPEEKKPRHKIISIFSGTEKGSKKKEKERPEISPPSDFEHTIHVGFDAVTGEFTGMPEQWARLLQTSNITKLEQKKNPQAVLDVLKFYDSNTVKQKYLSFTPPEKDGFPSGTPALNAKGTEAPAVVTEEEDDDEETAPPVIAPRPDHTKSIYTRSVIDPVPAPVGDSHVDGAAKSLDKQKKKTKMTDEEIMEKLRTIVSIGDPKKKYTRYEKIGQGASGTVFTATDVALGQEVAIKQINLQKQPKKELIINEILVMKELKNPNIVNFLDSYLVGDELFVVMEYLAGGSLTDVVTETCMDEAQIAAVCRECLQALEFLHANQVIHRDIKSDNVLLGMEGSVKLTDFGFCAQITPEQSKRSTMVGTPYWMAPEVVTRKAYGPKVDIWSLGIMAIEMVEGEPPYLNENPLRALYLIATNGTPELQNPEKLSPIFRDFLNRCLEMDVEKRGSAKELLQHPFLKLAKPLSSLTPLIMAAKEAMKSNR
Procedure, shortened: as §2

GPRK6 = GPRK6 (Homo sapiens (Human), UniProt P43250); experiment: KiNativ assay; assay type: binding; settings: H929 live cell
Sequence of GPRK6 (P43250 whole entry): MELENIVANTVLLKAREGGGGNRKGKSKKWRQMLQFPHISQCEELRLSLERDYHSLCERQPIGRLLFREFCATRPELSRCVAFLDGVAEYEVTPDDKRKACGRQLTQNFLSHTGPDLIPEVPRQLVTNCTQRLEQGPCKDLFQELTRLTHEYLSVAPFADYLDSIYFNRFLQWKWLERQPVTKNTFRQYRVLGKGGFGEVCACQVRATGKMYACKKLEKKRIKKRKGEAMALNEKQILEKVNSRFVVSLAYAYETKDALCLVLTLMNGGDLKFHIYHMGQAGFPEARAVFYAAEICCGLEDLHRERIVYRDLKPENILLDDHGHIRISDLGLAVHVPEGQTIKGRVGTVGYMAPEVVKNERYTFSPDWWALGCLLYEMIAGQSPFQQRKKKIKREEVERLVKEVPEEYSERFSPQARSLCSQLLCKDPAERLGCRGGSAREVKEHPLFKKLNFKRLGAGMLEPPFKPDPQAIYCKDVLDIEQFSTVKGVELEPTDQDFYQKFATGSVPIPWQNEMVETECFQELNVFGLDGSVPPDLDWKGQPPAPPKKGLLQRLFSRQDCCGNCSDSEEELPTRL
Procedure, shortened: as §1

MAP3K15 = MAP3K15 (Homo sapiens (Human), UniProt Q6ZN16); experiment: KiNativ assay; assay type: binding; settings: H929 live cell
Procedure, shortened: as §2

[1] = system: ALK2, ALK4, ALK7, BMPR1B, TGFbR1; experiment: KiNativ assay; assay type: binding; settings: H929 live cell; for % inhibition: 10 μM, range class
Procedure, shortened: as §2

[2] = range class, read-out: % inhibition

CN(C1CC1)S(=O)(=O)c1ccc(-c2cnc(N)c(-c3ccc4c(c3)CCNC4=O)c2)c(F)c1 [Compound I-28, 4-(6-amino-5-(1-oxo-1,2,3,4-tetrahydroisoquinolin-6-yl)pyridin-3-yl)-N-cyclopropyl-3-fluoro-N-methylbenzenesulfonamide]
inhibition at 10 µM (CK1g1; read-out: % inhibition (range)): 75 to 90%
inhibition at 10 µM (CK1g1; read-out: inhibition (10 μM)): > 85%
inhibition at 10 µM (ARAF; read-out: % inhibition (range)): 0%
inhibition at 10 µM (ARAF; read-out: inhibition (10 μM)): 8%
inhibition at 10 µM (KHS2; read-out: % inhibition (range)): 50 to 75%
inhibition at 10 µM (KHS2; read-out: inhibition (10 μM)): 68.3%
% inhibition (range) (CK1d, CK1e; 10 μM): 50-75%
inhibition (10 μM) (CK1d, CK1e): 68.2%
inhibition (10 μM) (DNAPK): 42.6% and 82.1%
inhibition at 10 µM (QSK; read-out: % inhibition (range)): 0%
inhibition at 10 µM (QSK; read-out: inhibition (10 μM)): 30.1%
PMOB1 levels (p-MOB1): reduced

COc1cc(NS(=O)(=O)C2CC2)ccc1-c1cnc(N)c(-c2ccc3c(c2)CCNC3=O)c1 [Compound I-50, N-(4-(6-amino-5-(1-oxo-1,2,3,4-tetrahydroisoquinolin-6-yl)pyridin-3-yl)-3-methoxyphenyl) cyclopropanesulfonamide]
% inhibition (MER, TYRO3): 0.0%
inhibition (10 μM) (MER, TYRO3): −2.0%
% inhibition (PCTAIRE2, PCTAIRE3): 0.0%
inhibition (10 μM) (PCTAIRE2, PCTAIRE3): −8.9%
inhibition at 10 µM (CLK3; [2]): 0%
inhibition at 10 µM (CLK3; read-out: inhibition (10 μM)): 1.5%
inhibition at 10 µM (PCTAIRE1; [2]): 0%
inhibition at 10 µM (PCTAIRE1; read-out: inhibition (10 μM)): -15.6%
% inhibition (PCTAIRE1, PCTAIRE3): 0.0%
inhibition (10 μM) (PCTAIRE1, PCTAIRE3): −3.5%
inhibition at 10 µM (PYK2; [2]): 0%
inhibition at 10 µM (PYK2; read-out: inhibition (10 μM)): 31.5%
inhibition at 10 µM (GAK; [2]): 50 to 75%
inhibition at 10 µM (GAK; read-out: inhibition (10 μM)): 51.1%
inhibition at 10 µM (MAP3K6; [2]): 0%
inhibition at 10 µM (MAP3K6; read-out: inhibition (10 μM)): -5.4%
inhibition at 10 µM (ZC3/MINK; [2]): 50 to 75%
inhibition at 10 µM (ZC3/MINK; read-out: inhibition (10 μM)): 57.6%
inhibition at 10 µM (PAK2; [2]): 0%
inhibition at 10 µM (PAK2; read-out: inhibition (10 μM)): 20.2%
inhibition at 10 µM (GPRK6; [2]): 0%
inhibition at 10 µM (GPRK6; read-out: inhibition (10 μM)): -40.5%
inhibition at 10 µM (MAP3K15; [2]): 35 to 40%
inhibition at 10 µM (MAP3K15; read-out: inhibition (10 μM)): 46.7%
inhibition at 10 µM (DNAPK; [2]): 0%
% inhibition [1]: 75-90%
inhibition (10 μM) [1]: 84.0%

Nc1ncc(-c2ccc(NS(=O)(=O)C3CC3)cc2F)cc1-c1ccc2c(c1)CCNC2=O [Compound I-51, N-(4-(6-amino-5-(1-oxo-1,2,3,4-tetrahydroisoquinolin-6-yl)pyridin-3-yl)-3-fluorophenyl) cyclopropanesulfonamide]
% inhibition (MER, TYRO3): 0.0%
inhibition (10 μM) (MER, TYRO3): −11.0%
% inhibition (PCTAIRE2, PCTAIRE3): 0.0%
inhibition (10 μM) (PCTAIRE2, PCTAIRE3): 5.1%
inhibition at 10 µM (CLK3; [2]): 0%
inhibition at 10 µM (CLK3; read-out: inhibition (10 μM)): 23.3%
inhibition at 10 µM (PCTAIRE1; [2]): 0%
inhibition at 10 µM (PCTAIRE1; read-out: inhibition (10 μM)): -0.2%
% inhibition (PCTAIRE1, PCTAIRE3): 0.0%
inhibition (10 μM) (PCTAIRE1, PCTAIRE3): 29.4%
inhibition at 10 µM (PYK2; [2]): 0%
inhibition at 10 µM (PYK2; read-out: inhibition (10 μM)): 30.1%
inhibition at 10 µM (GAK; [2]): 50 to 75%
inhibition at 10 µM (GAK; read-out: inhibition (10 μM)): 50.4%
inhibition at 10 µM (MAP3K6; [2]): 0%
inhibition at 10 µM (MAP3K6; read-out: inhibition (10 μM)): 24.4%
inhibition at 10 µM (ZC3/MINK; [2]): 50 to 75%
inhibition at 10 µM (ZC3/MINK; read-out: inhibition (10 μM)): 63.4%
inhibition at 10 µM (PAK2; [2]): 0%
inhibition at 10 µM (PAK2; read-out: inhibition (10 μM)): -14%
inhibition at 10 µM (GPRK6; [2]): 0%
inhibition at 10 µM (GPRK6; read-out: inhibition (10 μM)): 4.7%
inhibition at 10 µM (MAP3K15; [2]): 35 to 40%
inhibition at 10 µM (MAP3K15; read-out: inhibition (10 μM)): 36.4%
% inhibition [1]: 75-90%
inhibition (10 μM) [1]: 76.2%

Nc1ncc(-c2ccc(NS(=O)(=O)C3CC3)cc2OC2CCCCC2)cc1-c1ccc2c(c1)CCNC2=O [Compound I-65, N-(4-(6-amino-5-(1-oxo-1,2,3,4-tetrahydroisoquinolin-6-yl)pyridin-3-yl)-3-(cyclohexyloxy)phenyl) cyclopropanesulfonamide]
% inhibition (MER, TYRO3): 0.0%
inhibition (10 μM) (MER, TYRO3): 4.6%
% inhibition (PCTAIRE2, PCTAIRE3): 0.0%
inhibition (10 μM) (PCTAIRE2, PCTAIRE3): 20.3%
inhibition at 10 µM (CLK3; [2]): 35 to 40%
inhibition at 10 µM (CLK3; read-out: inhibition (10 μM)): 40%
inhibition at 10 µM (PCTAIRE1; [2]): 0%
inhibition at 10 µM (PCTAIRE1; read-out: inhibition (10 μM)): 9%
% inhibition (PCTAIRE1, PCTAIRE3): 0.0%
inhibition (10 μM) (PCTAIRE1, PCTAIRE3): 2.3%
inhibition at 10 µM (PYK2; [2]): 35 to 40%
inhibition at 10 µM (PYK2; read-out: inhibition (10 μM)): 38.7%
inhibition at 10 µM (GAK; [2]): 0%
inhibition at 10 µM (GAK; read-out: inhibition (10 μM)): 7.7%
inhibition at 10 µM (MAP3K6; [2]): 0%
inhibition at 10 µM (MAP3K6; read-out: inhibition (10 μM)): -7.2%
inhibition at 10 µM (ZC3/MINK; [2]): 50 to 75%
inhibition at 10 µM (ZC3/MINK; read-out: inhibition (10 μM)): 66.6%
inhibition at 10 µM (PAK2; [2]): 0%
inhibition at 10 µM (PAK2; read-out: inhibition (10 μM)): 1.7%
inhibition at 10 µM (GPRK6; [2]): 0%
inhibition at 10 µM (GPRK6; read-out: inhibition (10 μM)): 23.1%
inhibition at 10 µM (MAP3K15; [2]): 0%
inhibition at 10 µM (MAP3K15; read-out: inhibition (10 μM)): 29.7%
% inhibition [1]: >90%
inhibition (10 μM) [1]: 91.0%
